Source: PMC4598832 (Scientific Reports, 2015)
Changes are numbered by the printed parent chain. Where “and” joins values, the source holds several entries; their conditions need not be identical. Equal entries are not always repeated. Entries after “also recorded” stand apart in the source; their conditions may differ. Where two headings read alike, the source gives them in different places.

Assays:
Olfr73 (mOR-EG) wt = target: T1, Olfr73 (mOR-EG) wt (Mus musculus, UniProt Q920P2); test: cAMP reporter gene (SEAP) assay, Olfr73 wild type in Hana3A cells; format: cell-based
T1 construct: Rho (rhodopsin) tag; Myc; Flag; expressed in transfected cells; host or cells: Hana 3A cells
T1 sequence (Q920P2 1-313): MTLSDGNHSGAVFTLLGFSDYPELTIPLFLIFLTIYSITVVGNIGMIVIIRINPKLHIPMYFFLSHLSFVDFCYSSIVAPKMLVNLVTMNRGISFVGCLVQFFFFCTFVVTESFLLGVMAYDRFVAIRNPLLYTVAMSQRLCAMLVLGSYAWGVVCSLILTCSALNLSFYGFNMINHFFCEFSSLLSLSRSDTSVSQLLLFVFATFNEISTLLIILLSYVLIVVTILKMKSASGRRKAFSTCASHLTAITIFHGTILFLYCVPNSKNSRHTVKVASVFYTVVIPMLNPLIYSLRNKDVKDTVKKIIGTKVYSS

Olfr73 S113A-E208A-Y260F = target: T2, Olfr73 S113A-E208A-Y260F (Mus musculus, UniProt Q920P2, E208A/S113A/Y260F); test: cAMP reporter gene (SEAP) assay, Olfr73 triple mutant in Hana3A cells; format: cell-based
T2 construct: Rho (rhodopsin) tag; Myc; expressed in transfected cells; host or cells: Hana 3A cells
T2 sequence (Q920P2 1-313 S113A/E208A/Y260F): T1 sequence (Q920P2 1-313) with S113A, E208A, Y260F

Olfr74 (mOR-EV) wt = target: T3, Olfr74 (mOR-EV) wt (Mus musculus, UniProt Q920P1); test: cAMP reporter gene (SEAP) assay, Olfr74 wild type in Hana3A cells; format: cell-based; conditions: for activation of Olfr74 wild type: result in words
T3 sequence (Q920P1 1-318): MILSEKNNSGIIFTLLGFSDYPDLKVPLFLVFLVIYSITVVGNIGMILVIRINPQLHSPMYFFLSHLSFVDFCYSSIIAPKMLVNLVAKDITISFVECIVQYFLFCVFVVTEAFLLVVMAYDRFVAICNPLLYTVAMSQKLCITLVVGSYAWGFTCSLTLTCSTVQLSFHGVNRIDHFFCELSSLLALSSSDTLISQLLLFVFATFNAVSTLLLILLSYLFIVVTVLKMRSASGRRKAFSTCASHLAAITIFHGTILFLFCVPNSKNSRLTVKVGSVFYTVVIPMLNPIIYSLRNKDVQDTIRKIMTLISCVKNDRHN

Olfr74 F260Y = Olfr74 F260Y (Mus musculus, UniProt Q920P1, F260Y); test: cAMP reporter gene (SEAP) assay, Olfr74 F260Y in Hana3A cells; format: cell-based
Sequence of Olfr74 F260Y (Q920P1 entry or part of it F260Y): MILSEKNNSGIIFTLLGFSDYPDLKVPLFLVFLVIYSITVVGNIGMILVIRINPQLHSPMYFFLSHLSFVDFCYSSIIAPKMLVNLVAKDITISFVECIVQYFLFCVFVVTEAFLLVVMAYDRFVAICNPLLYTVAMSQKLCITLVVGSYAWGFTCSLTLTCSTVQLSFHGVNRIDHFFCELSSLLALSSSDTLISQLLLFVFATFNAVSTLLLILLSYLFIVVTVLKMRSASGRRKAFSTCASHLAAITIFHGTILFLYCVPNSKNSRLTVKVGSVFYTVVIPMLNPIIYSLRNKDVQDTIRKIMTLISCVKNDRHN
Protocol: (§1) Confluent Hana 3A cells (35000 cells per well) cultured in a 96-well plate at 37 °C (Perkin-Elmer) were transfected with 0.15 μg of wild-type or mutated Olfr73 or Olfr74 encoding plasmid DNAs and 0.15 μg of the cAMP response element secreted alkaline phosphatase reporter plasmid (pCRE-SEAP) using Lipofectamine 2000 (Invitrogen). Cells were induced 8 h after transfection with cell medium containing the ligand, or cell medium alone. For screening compound library, stock solutions of odorants (0.2–1 M) were prepared from pure compounds either in dimethyl sulfoxide (DMSO, Sigma-Aldrich, Buchs, CH) or ethanol and were stored at −20 °C. Mixtures of 5 to 10 odorants prepared form stock solutions, were diluted in serum-free DMEM and applied to the cells 8 hours after transfection (<100 μM, final individual odorant concentration). Experiments were carried out in triplicates and in parallel with a mock control (cells transfected with non-coding plasmid DNA). A relative SEAP activity [(n-1) times mock level] was calculated for each odorant mixture and those that induced an activity larger than 1 were considered for further analysis.
(§2) For odorant dose-dependent measurements of cAMP signaling specific ligands were added at increasing concentrations and measured in duplicates. Odorant-induced responses were measured using the SEAP activity reporter assay 16 h after stimulation. An aliquot of supernatant from each well was then mixed with an equal volume of 1 M diethanolamine bicarbonate (pH 9.8) containing 20 mM p-nitrophenyl phosphate and 1 mM MgCl2 (Sigma). The kinetics of hydrolysis of p-nitrophenol phosphate by alkaline phosphatase was determined by measuring the absorbance at 410 nm using a multiwell plate reader (SpectraMax 360, Molecular Devices). To remove SEAP activity background noise from the measurements, the mean value of mock control SEAP activity (Supplementary Figures 8 and 9) was subtracted from the mean value of OR-induced SEAP activity for each odorant concentration. Dose response curves and EC50 values were then determined by fitting these points with the Hill equation using IGOR Pro software (WaveMetrics, Portland, OR, USA). Statistical significance of the differences in EC50 values was analyzed using a two-tailed Student’s t test. p values below 0.05 were considered as being significant.

Olfr73 S113A = target: T4, Olfr73 S113A (Mus musculus, UniProt Q920P2, S113A); test: cAMP reporter gene (SEAP) assay, Olfr73 S113A in Hana3A cells; format: cell-based
T4 construct: Rho (rhodopsin) tag; expressed in transfected cells; host or cells: Hana 3A cells
T4 sequence (Q920P2 1-313 S113A): T1 sequence (Q920P2 1-313) with S113A

Olfr73 E208A = target: T5, Olfr73 E208A (Mus musculus, UniProt Q920P2, E208A); test: cAMP reporter gene (SEAP) assay, Olfr73 E208A in Hana3A cells; format: cell-based
T5 construct: Rho (rhodopsin) tag; Myc; expressed in transfected cells; host or cells: Hana 3A cells
T5 sequence (Q920P2 1-313 E208A): T1 sequence (Q920P2 1-313) with E208A

Olfr73 Y260F = target: T6, Olfr73 Y260F (Mus musculus, UniProt Q920P2, Y260F); test: cAMP reporter gene (SEAP) assay, Olfr73 Y260F in Hana3A cells; format: cell-based
T6 construct: Rho (rhodopsin) tag; Myc; expressed in transfected cells; host or cells: Hana 3A cells
T6 sequence (Q920P2 1-313 Y260F): T1 sequence (Q920P2 1-313) with Y260F
Protocol: Confluent Hana 3A cells (35000 cells per well) cultured in a 96-well plate at 37 °C (Perkin-Elmer) were transfected with 0.15 μg of wild-type or mutated Olfr73 or Olfr74 encoding plasmid DNAs and 0.15 μg of the cAMP response element secreted alkaline phosphatase reporter plasmid (pCRE-SEAP) using Lipofectamine 2000 (Invitrogen). Cells were induced 8 h after transfection with cell medium containing the ligand, or cell medium alone. […] Experiments were carried out in triplicates and in parallel with a mock control (cells transfected with non-coding plasmid DNA).

Olfr74 A113S = Olfr74 A113S (Mus musculus, UniProt Q920P1, A113S); test: cAMP reporter gene (SEAP) assay, Olfr74 A113S in Hana3A cells; format: cell-based
Sequence of Olfr74 A113S (Q920P1 entry or part of it A113S): as the sequence (Q920P1 entry or part of it F260Y) above, with A113S, Y260F counted along it
Protocol: as §1
as §2, with “To remove SEAP activity background noise from the measurements, the mean value of mock control SEAP activity (Supplementary Figures 8 and 9) was subtracted from the mean value of OR-induced SEAP activity for each odorant concentration.” left out

Olfr74 A113S-A208E-F260Y = test: cAMP reporter gene (SEAP) assay, Olfr74 triple mutant in Hana3A cells; format: cell-based, mouse; conditions: result in words
Protocol: as §1, with “Mixtures of 5 to 10 odorants prepared form stock solutions, were diluted in serum-free DMEM and applied to the cells 8 hours after transfection (<100 μM, final individual odorant concentration). Experiments were carried out in triplicates and in parallel with a mock control (cells transfected with non-coding plasmid DNA).” left out
For odorant dose-dependent measurements of cAMP signaling specific ligands were added at increasing concentrations and measured in duplicates. Odorant-induced responses were measured using the SEAP activity reporter assay 16 h after stimulation. […] The kinetics of hydrolysis of p-nitrophenol phosphate by alkaline phosphatase was determined by measuring the absorbance at 410 nm using a multiwell plate reader (SpectraMax 360, Molecular Devices). […]

Olfr74 = tested on: Olfr74; set-up: method as in PMID 12767924; conditions: HEK cells ref 31; cited from earlier work
[1] = Hana3A cells, SEAP reporter, dash in Table 1 = no measurable response, read-out: EC50 Olfr73 wt
[2] = dash in Table 1 = no measurable response, read-out: EC50 Olfr73 S113A-E208A-Y260F
[3] = EC50 Olfr74 F260Y, Hana3A cells, SEAP reporter
[4] = dash in Table 1 = no measurable response, read-out: EC50 Olfr73 S113A
[5] = Hana3A cells, SEAP reporter, read-out: EC50 Olfr73 E208A
[6] = dash in Table 1 = no measurable response, read-out: EC50 Olfr73 Y260F
[7] = rounded values derived from Fig. 2 and Supplementary Fig. 4, unit inferred, read-out: EC50 Olfr73 (WT), Supplementary Table 1
[8] = Hana3A cells, SEAP reporter, read-out: EC50 Olfr74 wt
[9] = rounded values derived from Fig. 2 and Supplementary Fig. 4, unit inferred, read-out: EC50 Olfr74 (WT), Supplementary Table 1
[10] = EC50 Olfr74 (F260Y), Supplementary Table 1, rounded values derived from Fig. 2 and Supplementary Fig. 4, unit inferred
[11] = EC50 Olfr73 (E208A), Supplementary Table 1, rounded values derived from Fig. 2 and Supplementary Fig. 4, unit inferred
[12] = EC50 Olfr73 E208A, Hana3A cells, SEAP reporter
[13] = EC50 Olfr73 wt, Hana3A cells, SEAP reporter, dash in Table 1 = no measurable response
[14] = read-out: EC50 Olfr73 S113A-E208A-Y260F, dash in Table 1 = no measurable response
[15] = read-out: EC50 Olfr73 S113A, dash in Table 1 = no measurable response

SMILES | EC50 (Olfr73 (mOR-EG) wt; [1]) | EC50 (Olfr73 S113A-E208A-Y260F; [2]) [µM] | activation of Olfr74 wild type (Olfr74 (mOR-EV) wt; Hana3A cells, SEAP reporter) | EC50 (Olfr74 F260Y; [3]) | EC50 (Olfr73 S113A; [4]) [µM] | EC50 (Olfr73 E208A; [5]) | EC50 (Olfr73 Y260F; [6]) [µM] | EC50 (Olfr73 (mOR-EG) wt; [7]) [µM] | EC50 (Olfr74 A113S) | EC50 (Olfr74 (mOR-EV) wt; [8]) | EC50 (Olfr74 (mOR-EV) wt; [9]) [µM] | EC50 (Olfr74 F260Y; [10]) [µM] | EC50 (Olfr73 E208A; [11]) [µM] | EC50 (Olfr73 E208A; [12]) [µM] | EC50 (Olfr73 (mOR-EG) wt; [13]) [µM] | EC50 (Olfr73 S113A-E208A-Y260F; [14]) [µM] | EC50 (Olfr73 S113A; [15]) [µM] | further results
COC(=O)c1ccc(O)c(OC)c1 [Methyl vanillate, methyl vanillate] | 240 µM and 241 µM | > 100 | do not activate | 447 ± 36 µM | > 100 | 347 ± 32 µM | > 100 |  |  |  |  |  |  |  |  |  |  | 
CCC=CCC1=C(C)CCC1=O [Jasmone, 3-methyl-2-(pent-2-enyl)-cyclopent-2-enone] |  |  |  | 8 µM and ~10 µM |  |  |  | > 100 | 71 µM and ~70 µM | 28 µM and ~30 µM | 30 | 10 | 70 | 66 ± 9 |  |  |  | activation of Olfr73 wild type (Olfr73 (mOR-EG) wt; Hana3A cells, SEAP reporter, result in words): inactive; EC50 (Olfr73 S113A-E208A-Y260F; EC50 Olfr73 S113A-E208A-Y260F, dash in Table 1 = no measurable response): 83 ± 11 µM; EC50 (Olfr73 S113A; EC50 Olfr73 S113A, dash in Table 1 = no measurable response): > 100 µM
CC(C)=CC1CC(C)CCO1 (centres unmarked) [Rose Oxide, rose oxide] | 35 ± 20 µM | > 100 |  | 42 µM and ~40 µM | 23 ± 24 | ~10 µM and 10 µM |  | 30 | > 100 µM | 155 ± 21 µM | > 100 | 40 |  |  |  |  |  | activation of Olfr74 triple mutant (A113S, A208E, F260Y) (Olfr74 A113S-A208E-F260Y): no detectable activation
CCOc1cc(C=O)ccc1O [Ethyl vanillin, ethyl vanillin] |  | > 100 |  | 171 ± 35 µM | 202 ± 44 | 147 ± 11 µM |  |  |  |  |  |  |  |  | 35 ± 4 |  |  | cAMP signalling upon stimulation of Olfr74 (Olfr74): no cAMP signalling; activation of Olfr74 wild type (Olfr74 (mOR-EV) wt; Hana3A cells, SEAP reporter, listed as ethyl vanillin): no detectable activation; activation of Olfr74 wild type (Olfr74 (mOR-EV) wt; Hana3A cells, SEAP reporter, listed as ethyl-vanillin): no response was detected; also recorded: do not activate
C=C(C)[C@@H]1CCC2=CC(=O)C[C@@H](C)[C@]2(C)C1 [Nootkatone, nootkatone] |  |  |  | 35 µM and ~40 µM |  |  |  |  | 78 µM and ~80 µM | 86 µM and ~90 µM | 90 | 40 | > 100 | 277 ± 54 | 225 ± 76 | > 100 | > 100 | EC50 (Olfr73 (mOR-EG) wt; EC50 Olfr73 (WT), Supplementary Table 1, rounded values derived from Fig. 2 and Supplementary Fig. 4, unit inferred): > 100 µM; EC50 (Olfr73 Y260F; read-out: EC50 Olfr73 Y260F, dash in Table 1 = no measurable response): > 100 µM
C/C=C/c1ccc(OC)c(OC)c1 [MIEG, methyl isoeugenol] | 131 ± 19 µM |  | do not activate | 406 ± 23 µM |  |  | > 100 |  |  |  |  |  |  | 10 ± 5 |  | > 100 | > 100 | 
